The numbers were not newly measured in US20130108552A1, “NEAR-IR INDOCYANINE GREEN DOPED MULTIMODAL SILICA NANOPARTICLES AND METHODS FOR MAKING THE SAME” (UNIVERSITY OF FLORIDA RESEARCH FOUNDATION INC., priority 2010, published 2013), which cites them from elsewhere.

Data set [1] deals with nonspecific plasma proteins.
The conditions of data set [2]: in H2O.

As to `CC1(C)C(/C=C/C=C/C=C/C=C2\N(CCCCS(=O)(=O)O)c3ccc4ccccc4c3C2(C)C)=[N+](CCCCS(=O)(=O)[O-])c2ccc3ccccc3c21` [ICG, indocyanine green], the “binding to nonspecific plasma proteins” value in data set [1] was “strongly bind to nonspecific plasma proteins”. Further, the critical micelle concentration entry in data set [2] is “about 0.32 mg/mL”.
